In patent publication US20250206730A1 (AUTOTELIC BIO INC., priority 2022, published 2025) one finds IC50 data, which are given here for 30 compounds.

The subject of one test is TGF-β signaling. Put plainly: Assay for evaluating cellular inhibition of TGF-β signaling, 4T1 (SBE-luc2P) luciferase reporter. It counts as cell-based. Conditions: Mus musculus, 4T1, 4T1 (SBE-luc2P) transient pool, 0.2% FBS, 2 h pre-treatment, TGF-β1 2 ng/mL 24 h; read-out: IC50 4T1 Cell. The procedure, abridged: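 Luminescence from SMAD-binding-element luciferase was measured after 24 h of 2 ng/mL TGF-β1 at 37 °C, following 2 h compound pre-treatment. HEK293 stable reporter cells were used at 2.5×10^4/well in 0.5% FBS (~80% confluent); the 4T1 SBE-luc2P transient pool at 6×10^3/well in 0.2% FBS (~60% confluent).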
A general note: In a reporter assay the amount or activity of a reporter protein is the signal.

For another test, the target named is T1, ALK5 kinase (Homo sapiens, UniProt P36897).
T1 sequence (P36897 34-503): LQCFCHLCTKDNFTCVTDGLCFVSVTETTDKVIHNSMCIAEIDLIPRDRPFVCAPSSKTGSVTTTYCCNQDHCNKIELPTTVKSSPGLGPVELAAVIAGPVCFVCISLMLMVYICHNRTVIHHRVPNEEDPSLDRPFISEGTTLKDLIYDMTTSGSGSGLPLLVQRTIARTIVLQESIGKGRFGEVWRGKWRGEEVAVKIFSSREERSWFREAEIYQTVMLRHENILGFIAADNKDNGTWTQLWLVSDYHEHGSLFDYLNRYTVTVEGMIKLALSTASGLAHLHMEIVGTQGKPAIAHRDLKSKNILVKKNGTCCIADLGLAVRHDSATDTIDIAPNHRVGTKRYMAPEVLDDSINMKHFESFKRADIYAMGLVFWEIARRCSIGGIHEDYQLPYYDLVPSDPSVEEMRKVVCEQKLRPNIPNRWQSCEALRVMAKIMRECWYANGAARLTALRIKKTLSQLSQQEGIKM
Put plainly: LanthaScreen Eu Kinase Binding Assay. Conditions: Kinase Tracer 178, Eu-anti-GST Antibody, read-out: IC50 Enzyme. The procedure, abridged:
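Tracer-displacement TR-FRET: after 30 min RT compound–kinase preincubation, Eu-labelled anti-GST antibody plus Kinase Tracer 178 were incubated 60 min at RT. Binding was read as a lower 665 nm/615 nm emission ratio (excitation 340 nm).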

For the compound `CCc1nc(-c2ccccc2)c(Oc2ccnc(Nc3cccc(C(C)(C)O)c3)c2)s1` [A-182, 2-(3-((4-((2-Ethyl-4-phenylthiazol-5-yl)oxy)pyridin-2-yl)amino)phenyl)propan-2-ol], the IC50 (usually the concentration that gives 50% inhibition) is greater than 100 nM with TGF-β signaling and less than 100 nM at ALK5 kinase.

In the case of `CCc1nc(-c2ccccc2)c(Oc2ccnc(Nc3cccc(C(N)=O)c3)c2)s1` [A-183, 3-((4-((2-Ethyl-4-phenylthiazol-5-yl)oxy)pyridin-2-yl)amino)benzamide], the IC50 in the test on TGF-β signaling and on ALK5 kinase was less than 100 nM in each case.

On to `CCc1nc(-c2ccccc2)c(Oc2ccnc(Nc3ccc(S(N)(=O)=O)cc3)c2)s1` [A-184, 4-((4-((2-Ethyl-4-phenylthiazol-5-yl)oxy)pyridin-2-yl)amino)benzenesulfonamide], for which the IC50 in the test with TGF-β signaling was greater than 100 nM; at ALK5 kinase, less than 100 nM.

As for `CCc1nc(-c2ccccc2)c(Oc2ccnc(Nc3ccc(C(N)=O)cc3)c2)s1` [A-185, 4-((4-((2-Ethyl-4-phenylthiazol-5-yl)oxy)pyridin-2-yl)amino)benzamide], the results for the IC50 in the test on TGF-β signaling and at ALK5 kinase were greater than 100 nM and less than 100 nM, respectively.

For the compound `CCc1nc(-c2ccccc2)c(Oc2ccnc(Nc3ccnc(C(C)(C)O)c3)c2)s1` [A-186, 2-(4-((4-((2-Ethyl-4-phenylthiazol-5-yl)oxy)pyridin-2-yl)amino)pyridin-2-yl)propan-2-ol], the 50% inhibitory concentration (IC50) with TGF-β signaling and at ALK5 kinase was less than 100 nM in each case.

Turning to `CCc1nc(-c2ccccc2)c(Oc2ccnc(Nc3ccc(C(C)(C)O)nc3)c2)s1` [A-187, 2-(5-((4-((2-Ethyl-4-phenylthiazol-5-yl)oxy)pyridin-2-yl)amino)pyridin-2-yl)propan-2-ol], the IC50 in the test with TGF-β signaling is greater than 100 nM; at ALK5 kinase, less than 100 nM.

Consider `CCc1nc(-c2ccccc2)c(Oc2ccnc(Nc3cccc(NS(=O)(=O)CC)c3)c2)s1` [A-188, N-(3-((4-((2-Ethyl-4-phenylthiazol-5-yl)oxy)pyridin-2-yl)amino)phenyl)ethanesulfonamide], for which the half-maximal inhibitory concentration (IC50) in the test with TGF-β signaling and at ALK5 kinase was less than 100 nM throughout.

Take `CCc1nc(-c2ccccc2)c(Oc2ccnc(Nc3ccc(C(=O)NC)cc3)c2)s1` [A-189, 4-((4-((2-Ethyl-4-phenylthiazol-5-yl)oxy)pyridin-2-yl)amino)-N-methylbenzamide]: the IC50 in the test with TGF-β signaling and on ALK5 kinase was less than 100 nM throughout.

Regarding `CCc1nc(-c2ccccc2)c(Oc2ccnc(Nc3ccc(C(N)=O)cn3)c2)s1` [A-190, 6-((4-((2-Ethyl-4-phenylthiazol-5-yl)oxy)pyridin-2-yl)amino)nicotinamide], the half-maximal inhibitory concentration (IC50) in the test on TGF-β signaling and on ALK5 kinase was less than 100 nM in each case.

Consider `CCc1nc(-c2ccccc2)c(Oc2ccnc(Nc3ccc(C(=O)O)cn3)c2)s1` [A-192, 6-((4-((2-Ethyl-4-phenylthiazol-5-yl)oxy)pyridin-2-yl)amino)nicotinic acid], for which the IC50 in the test on TGF-β signaling and on ALK5 kinase was less than 100 nM in each case.

On to `CCc1nc(-c2ccccc2)c(Oc2ccnc(Nc3ccc(C(=O)NC)cn3)c2)s1` [A-193, 6-((4-((2-Ethyl-4-phenylthiazol-5-yl)oxy)pyridin-2-yl)amino)-N-methylnicotinamide], for which the half-maximal inhibitory concentration (IC50) with TGF-β signaling and on ALK5 kinase was less than 100 nM in each case.

In the case of `CCc1nc(-c2ccccc2)c(Oc2ccnc(Nc3cccc(C(=O)O)c3)c2)s1` [A-194, 3-((4-((2-Ethyl-4-phenylthiazol-5-yl)oxy)pyridin-2-yl)amino)benzoic acid], the IC50 in the test with TGF-β signaling was greater than 100 nM; at ALK5 kinase, less than 100 nM.

As to `CCc1nc(-c2ccccc2)c(Oc2ccnc(Nc3ccc(C(=O)O)cc3)c2)s1` [A-195, 4-((4-((2-Ethyl-4-phenylthiazol-5-yl)oxy)pyridin-2-yl)amino)benzoic acid], the IC50 with TGF-β signaling and on ALK5 kinase was less than 100 nM each time.

As for `CC(C)c1nc(-c2ccccc2)c(Oc2ccnc(Nc3cccc(C(=O)O)n3)c2)s1` [A-217, 6-((4-((2-Isopropyl-4-phenylthiazol-5-yl)oxy)pyridin-2-yl)amino)picolinic acid], the IC50 in the test on TGF-β signaling and at ALK5 kinase was greater than 100 nM each time.

As to `CC(C)c1nc(-c2ccccc2)c(Oc2ccnc(Nc3cccc(S(N)(=O)=O)c3)c2)s1` [A-218, 3-((4-((2-Isopropyl-4-phenylthiazol-5-yl)oxy)pyridin-2-yl)amino)benzenesulfonamide], the IC50 in the test on TGF-β signaling and on ALK5 kinase was greater than 100 nM throughout.

For `CC(C)c1nc(-c2ccccc2)c(Oc2ccnc(Nc3cccc(C(C)(C)O)c3)c2)s1` [A-219, 2-(3-((4-((2-Isopropyl-4-phenylthiazol-5-yl)oxy)pyridin-2-yl)amino)phenyl)propan-2-ol], the concentration for half-maximal inhibition (IC50) with TGF-β signaling and on ALK5 kinase was greater than 100 nM each time.

Consider `CC(C)c1nc(-c2ccccc2)c(Oc2ccnc(Nc3cccc(C(N)=O)c3)c2)s1` [A-220, 3-((4-((2-Isopropyl-4-phenylthiazol-5-yl)oxy)pyridin-2-yl)amino)benzamide], for which the IC50 with TGF-β signaling is greater than 100 nM; on ALK5 kinase, less than 100 nM.

Take `CC(C)c1nc(-c2ccccc2)c(Oc2ccnc(Nc3ccc(S(N)(=O)=O)cc3)c2)s1` [A-221, 4-((4-((2-Isopropyl-4-phenylthiazol-5-yl)oxy)pyridin-2-yl)amino)benzenesulfonamide]: the 50% inhibitory concentration (IC50) is greater than 100 nM in the test with TGF-β signaling and less than 100 nM on ALK5 kinase.

With `CC(C)c1nc(-c2ccccc2)c(Oc2ccnc(Nc3ccc(C(N)=O)cc3)c2)s1` [A-222, 4-((4-((2-Isopropyl-4-phenylthiazol-5-yl)oxy)pyridin-2-yl)amino)benzamide], the concentration for half-maximal inhibition (IC50) in the test on TGF-β signaling and on ALK5 kinase was greater than 100 nM in each case.

Consider `CC(C)c1nc(-c2ccccc2)c(Oc2ccnc(Nc3ccnc(C(C)(C)O)c3)c2)s1` [A-223, 2-(4-((4-((2-Isopropyl-4-phenylthiazol-5-yl)oxy)pyridin-2-yl)amino)pyridin-2-yl)propan-2-ol], for which the figures for the concentration for half-maximal inhibition (IC50) with TGF-β signaling and on ALK5 kinase were greater than 100 nM and less than 100 nM, respectively.

For the compound `CC(C)c1nc(-c2ccccc2)c(Oc2ccnc(Nc3ccc(C(C)(C)O)nc3)c2)s1` [A-224, 2-(5-((4-((2-Isopropyl-4-phenylthiazol-5-yl)oxy)pyridin-2-yl)amino)pyridin-2-yl)propan-2-ol], the IC50 in the test on TGF-β signaling is greater than 100 nM; at ALK5 kinase, less than 100 nM.

Take `CNC(=O)c1cccc(Nc2cc(Oc3sc(C(C)C)nc3-c3ccccc3)ccn2)n1` [A-225, 6-((4-((2-Isopropyl-4-phenylthiazol-5-yl)oxy)pyridin-2-yl)amino)-N-methylpicolinamide]: the half-maximal inhibitory concentration (IC50) in the test with TGF-β signaling and on ALK5 kinase was less than 100 nM throughout.

Take `CC(C)c1nc(-c2ccccc2)c(Oc2ccnc(Nc3cccc(C(N)=O)n3)c2)s1` [A-226, 6-((4-((2-Isopropyl-4-phenylthiazol-5-yl)oxy)pyridin-2-yl)amino)picolinamide]: the results for the half-maximal inhibitory concentration (IC50) with TGF-β signaling and at ALK5 kinase were greater than 100 nM and less than 100 nM, respectively.

For `CC(C)c1nc(-c2ccccc2)c(Oc2ccnc(Nc3ccc(C(N)=O)cn3)c2)s1` [A-227, 6-((4-((2-Isopropyl-4-phenylthiazol-5-yl)oxy)pyridin-2-yl)amino)nicotinamide], the IC50 in the test on TGF-β signaling and on ALK5 kinase was less than 100 nM throughout.

With `CNC(=O)c1ccc(Nc2cc(Oc3sc(C(C)C)nc3-c3ccccc3)ccn2)nc1` [A-228, 6-((4-((2-Isopropyl-4-phenylthiazol-5-yl)oxy)pyridin-2-yl)amino)-N-methylnicotinamide], the 50% inhibitory concentration (IC50) with TGF-β signaling and at ALK5 kinase was less than 100 nM in each case.

On to `CNC(=O)c1ccc(Nc2cc(Oc3sc(C(C)C)nc3-c3ccccc3)ccn2)cc1` [A-229, 4-((4-((2-Isopropyl-4-phenylthiazol-5-yl)oxy)pyridin-2-yl)amino)-N-methylbenzamide], for which the half-maximal inhibitory concentration (IC50) in the test on TGF-β signaling was greater than 100 nM; on ALK5 kinase, less than 100 nM.

On to `CC(C)c1nc(-c2ccccc2)c(Oc2ccnc(Nc3cccc(C(=O)O)c3)c2)s1` [A-230, 3-((4-((2-Isopropyl-4-phenylthiazol-5-yl)oxy)pyridin-2-yl)amino)benzoic acid], for which the 50% inhibitory concentration (IC50) in the test with TGF-β signaling is greater than 100 nM; at ALK5 kinase, less than 100 nM.

On to `CC(C)c1nc(-c2ccccc2)c(Oc2ccnc(Nc3ccc(C(=O)O)cc3)c2)s1` [A-231, 4-((4-((2-Isopropyl-4-phenylthiazol-5-yl)oxy)pyridin-2-yl)amino)benzoic acid], for which the 50% inhibitory concentration (IC50) with TGF-β signaling and on ALK5 kinase was less than 100 nM each time.

Turning to `CC(C)c1nc(-c2ccccc2)c(Oc2ccnc(Nc3ccc(C(=O)O)cn3)c2)s1` [A-232, 6-((4-((2-Isopropyl-4-phenylthiazol-5-yl)oxy)pyridin-2-yl)amino)nicotinic acid], the half-maximal inhibitory concentration (IC50) with TGF-β signaling and on ALK5 kinase was less than 100 nM each time.

With `CNc1nc(-c2ccc3ccccc3c2)c(Oc2ccnc(Nc3cccc(S(N)(=O)=O)c3)c2)s1` [A-233, 3-((4-((2-(Methylamino)-4-(naphthalen-2-yl)thiazol-5-yl)oxy)pyridin-2-yl)amino)benzenesulfonamide], the IC50 with TGF-β signaling and on ALK5 kinase was greater than 100 nM in each case.
